A short description of series [1]: Curcuminoids in murine tumor, brain and liver after PHRAD 129. Particulars: for signal in murine tumor extract: oral PHRAD 129, 100 mg/kg daily. As to the method:
Murine soft tissues. Mouse liver, brain, and tumor samples were collected from animals that had been administered a proprietary turmeric formulation (PHRAD 129, Aveta Biomics, Bedford, Mass.). After dissection, the tissues were weighed, frozen and stored at −80° C.
The samples were homogenized in a bead mill (thrice for 10 seconds each time at RT). The homogenate was vigorously mixed (5 min, RT), centrifuged (16,000 g, 5 min at RT), and the supernatant was transferred to microcentrifuge tubes and dried in a vacuum centrifuge. The dried samples were tightly capped and stored at −80° C.

Series [2] in a line: BF2-curcuminoid complex stability (hydrolysis, autosampler). The format is physicochemical. As to the method:
Complex stability: The BF2-curcumin complexes slowly hydrolyze in water and water/methanol mixtures with a half-life of a few hours at 4° C. For applicability to an LC/MS assay on biological samples containing amounts of curcuminoids as low as 50 fmol/sample, and using an aqueous chromatographic mobile phase, it was necessary to use conditions that minimized hydrolysis. This breakdown was slowed but not averted by storing the samples at even lower temperatures (−80° C.) prior to analysis. The breakdown of the derivatives was averted by performing the reaction in glacial acetic acid and directly injecting the reaction mixture onto the LC column. Even after the injection of hundreds of samples there has been no noticeable deterioration of chromatographic reliability. Furthermore, by using a short 10 minute chromatographic gradient the hydrolysis of the complexes during chromatography was minimized. The stability of BF2-curcuminoid complex was tested to validate the assay for overnight analysis. Eight QC-mid samples were prepared, stored tightly capped to minimize contact with atmospheric moisture in the autosampler at 20° C., and each sample was analyzed every hour for up to seven hours. Except for BF2-TC, the curcuminoid complexes were stable throughout the 7 hour test period with no significant decline in peak intensity (FIG. 4).

The conditions of series [3]: in vivo.
Experimental: (§1) Biological samples: Human plasma. […] The tubes were centrifuged (1000 g, 15 min), and plasma was collected and stored at −80° C.
(§2) Extraction of human plasma samples and BF2 complex formation: Plasma samples were prepared in duplicate by transferring aliquots of human plasma (100 uL) to 1.5 mL microcentrifuge tubes. The internal standards (1 pmol d6C and 5 pmol d6TC in 10 uL of methanol) were added to each sample. They were briefly vortexed, then treated with cold 10 mM acetic acid in methanol (1 mL). After rigorous mixing, incubation (4° C., 60 min) and centrifugation (16,000 g, Rt, 5 min) supernatants were transferred to clean microcentrifuge tubes and dried in a vacuum centrifuge. The dried samples were tightly capped and stored in −80° C.
(§3) Analysis of the blood collected at 0, 1, 2, 3, 4, and 5 hours after compound ingestion on Day 1 and 0, 1, 2, 3, and 4 hours on Day 17 was performed.
Series [4] in a line: In vivo temporal profile of plasma curcuminoids and metabolites in a human volunteer. As to conditions: Longvida four tablets daily for 17 consecutive days.
Experimental: as §1, §2, §3

Like-named read-outs stand apart in the source and are kept apart here.

Eight compounds from patent US20220178936A1, “A SENSITIVE LC-MS ASSAY TO MEASURE CURCUMINOIDS IN COMPLEX BIOLOGICAL SAMPLES” (THE REGENTS OF THE UNIVERSITY OF CALIFORNIA, priority 2019, published 2022) can be followed below.

Turning to `COc1cc(/C=C/C(=O)CC(=O)/C=C/c2ccc(O)c(OC)c2)ccc1O` [Curcumin, curcumin], in series [1] (mouse, in vivo), the “signal in mouse brain extract” value is recorded as “measurable peaks”.

On to `COc1cc(C=CC2=CC(C=Cc3ccc(O)c(OC)c3)=[O+][B-](F)(F)O2)ccc1O` [BF2-C], for which the hydrolysis half-life entry in series [2] (water and water/methanol mixtures, 4° C.) is listed as “a few hours”.

Turning to tetrahydrocurcumin, in series [1], the “signal in murine tumor extract” value is listed as “strong signals”.

Regarding `O=C(C=Cc1ccc(O)cc1)CC(=O)C=Cc1ccc(O[C@@H]2O[C@H](C(=O)O)[C@@H](O)[C@H](O)[C@H]2O)cc1` [BDMCG, bisdemethoxycurcumin glucuronide], in series [1] (mouse, in vivo), the “signal in mouse brain extract” value is recorded as “not detected” and the “signal in mouse liver extract” value is reported as “not detected”. Besides, the “signal in human plasma extract” value in series [3] is “intense peaks”.

Turning to Demethoxycurcumin, in series [1] (after PHRAD 129), the “signal in mouse brain extract” value is listed as “measurable peaks” and the “signal in mouse liver extract” value is “measurable peaks”. Moreover, the “signal in murine tumor extract” value in series [1] is recorded as “strong signals”.

As to bisdemethoxycurcumin, in series [1] (after PHRAD 129), the “signal in mouse liver extract” value is “measurable peaks”. Further, the “signal in murine tumor extract” value in series [1] was “strong signals”.

As for `COc1cc(CCC2=CC(CCc3ccc(O)c(OC)c3)=[O+][B-](F)(F)O2)ccc1O` [BF2-TC], the “stability in autosampler (peak intensity)” value in series [2] (glacial acetic acid reaction mixture, 20° C., 7 hour test period, QC-mid) is “slight loss of signal intensity”.

Turning to demethoxycurcumin glucuronide [DMCG], the “signal in human plasma extract” value in series [4] was “intense peaks”. In series [1] (after PHRAD 129), the “signal in mouse brain extract” value is on record as “not detected” and the “signal in mouse liver extract” value is listed as “not detected”. In addition, the “signal in murine tumor extract” value in series [1] was “not detected”.
